What was measured:
[1] = biological target: T1, Bile acid receptor (Homo sapiens, UniProt Q96RI1); assay: Agonist activity at recombinant human GST-tagged FXR LBD (193 to 472 residues) expressed in baculovirus-infected insect cells assessed as recruitment of biotinylated SRC1 peptide measured after 1 hr by Alphascreen assay
T1 sequence (Q96RI1 whole entry): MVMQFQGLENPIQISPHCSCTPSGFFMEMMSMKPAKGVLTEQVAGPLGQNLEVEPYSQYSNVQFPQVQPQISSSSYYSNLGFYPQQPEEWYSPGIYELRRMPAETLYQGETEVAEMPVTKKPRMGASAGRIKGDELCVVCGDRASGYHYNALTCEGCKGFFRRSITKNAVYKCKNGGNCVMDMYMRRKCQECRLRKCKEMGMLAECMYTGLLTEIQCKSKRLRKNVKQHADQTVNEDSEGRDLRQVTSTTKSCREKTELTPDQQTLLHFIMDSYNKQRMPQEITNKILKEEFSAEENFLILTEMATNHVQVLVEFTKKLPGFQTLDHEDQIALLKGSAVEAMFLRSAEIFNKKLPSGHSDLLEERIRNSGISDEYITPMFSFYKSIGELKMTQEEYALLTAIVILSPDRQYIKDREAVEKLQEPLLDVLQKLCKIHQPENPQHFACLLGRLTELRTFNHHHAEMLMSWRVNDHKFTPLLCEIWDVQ

[2] = biological target: T2, Bile acid receptor (Homo sapiens) (UniProt Q96RI1); assay: Agonist activity at recombinant human GST-tagged FXR LBD (193 to 472 residues) expressed in baculovirus-infected insect cells assessed as recruitment of biotinylated SRC1 peptide measured after 1 hr by Alphascreen assay relative to CDCA
T2 sequence (whole entry): T1 sequence (Q96RI1 whole entry)

[3] = biological target: T1, Bile acid receptor; assay: Agonist activity at FXR (unknown origin) measured after 16 hrs in presence of CCF4-AM dye by cell-based GeneBlazer FRET assay
[4] = biological target: T2, Bile acid receptor (Homo sapiens); assay: Agonist activity at FXR (unknown origin) measured after 16 hrs in presence of CCF4-AM dye by cell-based GeneBlazer FRET assay relative to CDCA
[5] = biological target: T3, G-protein coupled bile acid receptor 1 (Homo sapiens, UniProt Q8TDU6); assay: Agonist activity at human TGR5 expressed in HEK293 cells assessed as increase in intracellular cAMP level after 1 hr by TR-FRET assay; format: functional, cell-based
T3 sequence (Q8TDU6 whole entry): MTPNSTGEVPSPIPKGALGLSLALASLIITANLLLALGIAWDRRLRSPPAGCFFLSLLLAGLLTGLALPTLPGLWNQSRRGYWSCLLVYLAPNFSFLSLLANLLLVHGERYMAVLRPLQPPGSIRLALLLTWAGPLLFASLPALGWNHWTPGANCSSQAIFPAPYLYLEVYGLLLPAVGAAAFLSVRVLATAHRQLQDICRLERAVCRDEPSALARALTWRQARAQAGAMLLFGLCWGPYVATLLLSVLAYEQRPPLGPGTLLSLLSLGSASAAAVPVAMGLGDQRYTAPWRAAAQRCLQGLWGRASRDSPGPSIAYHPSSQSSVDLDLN

[6] = species: Homo sapiens; assay: Selectivity ratio of EC50 for recombinant human GST-tagged FXR LBD (193 to 472 residues) expressed in baculovirus-infected insect cells to EC50 for human TGR5 expressed in HEK293 cells

Row | SMILES | EC50 [1] | Efficacy [2] | EC50 [3] | Efficacy [4] | EC50 [5] | Ratio EC50 [6]
1 | CC[C@H]1[C@@H](O)[C@@H]2[C@H](CC[C@]3(C)[C@@H]([C@H](C)CCNC(N)=O)CC[C@@H]23)[C@@]2(C)CC[C@@H](O)C[C@@H]12 | 230 nM | 104% | – | – | – | –
2 | CCOC(=O)NCC[C@@H](C)[C@H]1CC[C@H]2[C@@H]3[C@H](O)[C@H](CC)[C@@H]4C[C@H](O)CC[C@]4(C)[C@H]3CC[C@]12C | 280 nM | 138% | 100 nM | 174% | 280 nM | 1
3 | CC[C@H]1[C@@H](O)[C@@H]2[C@H](CC[C@]3(C)[C@@H]([C@H](C)CCC4NC(=O)NC4=O)CC[C@@H]23)[C@@]2(C)CC[C@@H](O)C[C@@H]12 (some centres not stated) | 2700 nM | 202% | – | – | – | –
4 | CC[C@H]1[C@@H](O)[C@@H]2[C@H](CC[C@]3(C)[C@@H]([C@H](C)CCNC(=O)N4CC[C@H](O)C4)CC[C@@H]23)[C@@]2(C)CC[C@@H](O)C[C@@H]12 | 80 nM | 115% | – | – | 160 nM | 2
5 | CC[C@H]1[C@@H](O)[C@@H]2[C@H](CC[C@]3(C)[C@@H]([C@H](C)CCNC(=O)c4ccccn4)CC[C@@H]23)[C@@]2(C)CC[C@@H](O)C[C@@H]12 | 30 nM | 88% | – | – | – | –
6 | CC[C@H]1[C@@H](O)[C@@H]2[C@H](CC[C@]3(C)[C@@H]([C@H](C)CCNS(=O)(=O)C4CC4)CC[C@@H]23)[C@@]2(C)CC[C@@H](O)C[C@@H]12 | 230 nM | 87% | – | – | – | –
7 | CC[C@H]1[C@@H](O)[C@@H]2[C@H](CC[C@]3(C)[C@@H]([C@H](C)CCC(=O)O)CC[C@@H]23)[C@@]2(C)CC[C@@H](OC)C[C@@H]12 | 1800 nM | 108% | – | – | – | –
8 | CC[C@H]1[C@@H](O)[C@@H]2[C@H](CC[C@]3(C)[C@@H]([C@H](C)CCCNS(C)(=O)=O)CC[C@@H]23)[C@@]2(C)CC[C@@H](O)C[C@@H]12 | 110 nM | 85% | – | – | – | –
9 | CC[C@H]1[C@@H](O)[C@@H]2[C@H](CC[C@]3(C)[C@@H]([C@H](C)CCC(=O)O)CC[C@@H]23)[C@@]2(C)CCCC[C@@H]12 | 400 nM | 126% | – | – | – | –
10 | CC[C@H]1[C@@H](O)[C@@H]2[C@H](CC[C@]3(C)[C@@H]([C@H](C)CCNC(=O)OCc4cccs4)CC[C@@H]23)[C@@]2(C)CC[C@@H](O)C[C@@H]12 | 230 nM | 142% | 110 nM | 168% | – | –
11 | CC[C@H]1[C@@H](O)[C@@H]2[C@H](CC[C@]3(C)[C@@H]([C@H](C)CCc4nn[nH]n4)CC[C@@H]23)[C@@]2(C)CC[C@@H](O)C[C@@H]12 | – | 153% | – | – | – | 30
12 | CC[C@H]1[C@@H](O)[C@@H]2[C@H](CC[C@]3(C)[C@@H]([C@H](C)CCNC(=O)OC)CC[C@@H]23)[C@@]2(C)CC[C@@H](O)C[C@@H]12 | 300 nM | 149% | – | – | – | –
13 | CC[C@H]1[C@@H](O)[C@@H]2[C@H](CC[C@]3(C)[C@@H]([C@H](C)CCNS(C)(=O)=O)CC[C@@H]23)[C@@]2(C)CC[C@@H](O)C[C@@H]12 | 280 nM | 128% | – | – | – | –
14 | CC[C@H]1[C@@H](O)[C@@H]2[C@H](CC[C@]3(C)[C@@H]([C@H](C)CCNC(=O)NC4CC4)CC[C@@H]23)[C@@]2(C)CC[C@@H](O)C[C@@H]12 | 70 nM | 104% | – | – | 420 nM | 6
15 | CC[C@H]1[C@@H](O)[C@@H]2[C@H](CC[C@]3(C)[C@@H]([C@H](C)CCNC(=O)O[C@H]4CCOC4)CC[C@@H]23)[C@@]2(C)CC[C@@H](O)C[C@@H]12 | 90 nM | 109% | 80 nM | 167% | 240 nM | 3
16 | CC[C@H]1[C@@H](O)[C@@H]2[C@H](CC[C@]3(C)[C@@H]([C@H](C)CCC(=O)NCC(=O)O)CC[C@@H]23)[C@@]2(C)CC[C@@H](O)C[C@@H]12 | 290 nM | 135% | – | – | – | –
17 | CC[C@H]1[C@@H](O)[C@@H]2[C@H](CC[C@]3(C)[C@@H]([C@H](C)CCC(N)=O)CC[C@@H]23)[C@@]2(C)CC[C@@H](O)C[C@@H]12 | 600 nM | 142% | – | – | – | –

Row | SMILES | EC50 [1] | Efficacy [2] | EC50 [3] | Efficacy [4] | EC50 [5] | Ratio EC50 [6]
18 | CC[C@H]1[C@@H](O)[C@@H]2[C@H](CC[C@]3(C)[C@@H]([C@H](C)CCC(=O)S)CC[C@@H]23)[C@@]2(C)CC[C@@H](O)C[C@@H]12 | 240 nM | 226% | – | – | – | –
19 | CC[C@H]1[C@@H](O)[C@@H]2[C@H](CC[C@]3(C)[C@@H]([C@H](C)CCC(=O)O)CC[C@@H]23)[C@@]2(C)CCC(F)(F)C[C@@H]12 | 1100 nM | 109% | – | – | – | –
20 | CC[C@H]1[C@@H](O)[C@@H]2[C@H](CC[C@]3(C)[C@@H]([C@H](C)CCNC(=O)OC4CCC4)CC[C@@H]23)[C@@]2(C)CC[C@@H](O)C[C@@H]12 | 150 nM | 100% | – | – | – | –
21 | CC[C@H]1[C@@H](O)[C@@H]2[C@H](CC[C@]3(C)[C@@H]([C@H](C)CCNS(=O)(=O)c4ccccc4)CC[C@@H]23)[C@@]2(C)CC[C@@H](O)C[C@@H]12 | 470 nM | 117% | – | – | – | –
22 | CC[C@H]1[C@@H](O)[C@@H]2[C@H](CC[C@]3(C)[C@@H]([C@H](C)CCNC(=O)OC(C)C)CC[C@@H]23)[C@@]2(C)CC[C@@H](O)C[C@@H]12 | 300 nM | 162% | – | – | – | –
23 | CC[C@H]1[C@@H](O)[C@@H]2[C@H](CC[C@]3(C)[C@@H]([C@H](C)CCNC(C)=O)CC[C@@H]23)[C@@]2(C)CC[C@@H](O)C[C@@H]12 | 150 nM | 81% | – | – | – | –
24 | CC[C@H]1[C@@H](O)[C@@H]2[C@H](CC[C@]3(C)[C@@H]([C@H](C)CCCNS(=O)(=O)c4ccccc4)CC[C@@H]23)[C@@]2(C)CC[C@@H](O)C[C@@H]12 | 230 nM | 79% | – | – | – | –
25 | CC[C@H]1[C@@H](O)[C@@H]2[C@H](CC[C@]3(C)[C@@H]([C@H](C)CCC(=O)O)CC[C@@H]23)[C@@]2(C)Cc3cn[nH]c3C[C@@H]12 | 300 nM | 136% | – | – | – | –
26 | CC[C@H]1[C@@H](O)[C@@H]2[C@H](CC[C@]3(C)[C@@H]([C@H](C)CCC(C)=O)CC[C@@H]23)[C@@]2(C)CC[C@@H](O)C[C@@H]12 | 1000 nM | 263% | – | – | – | –
27 | CC[C@H]1[C@@H](O)[C@@H]2[C@H](CC[C@]3(C)[C@@H]([C@H](C)CCCNC(N)=O)CC[C@@H]23)[C@@]2(C)CC[C@@H](O)C[C@@H]12 | 130 nM | 95% | – | – | – | –
28 | CC[C@H]1[C@@H](O)[C@@H]2[C@H](CC[C@]3(C)[C@@H]([C@H](C)CCNC(=O)OC4CCCCC4)CC[C@@H]23)[C@@]2(C)CC[C@@H](O)C[C@@H]12 | 300 nM | 140% | – | – | – | –
29 | CC[C@H]1[C@@H](O)[C@@H]2[C@H](CC[C@]3(C)[C@@H]([C@H](C)CCC(=O)O)CC[C@@H]23)[C@@]2(C)CCC3(CC3)C[C@@H]12 | 700 nM | 68% | – | – | – | –
30 | CC[C@H]1[C@@H](O)[C@@H]2[C@H](CC[C@]3(C)[C@@H]([C@H](C)CCCNC(=O)N4CC[C@H](O)C4)CC[C@@H]23)[C@@]2(C)CC[C@@H](O)C[C@@H]12 | 370 nM | 129% | – | – | – | –
31 | CC[C@H]1[C@@H](O)[C@@H]2[C@H](CC[C@]3(C)[C@@H]([C@H](C)CCC(=O)O)CC[C@@H]23)[C@@]2(C)CCC(C)C[C@@H]12 (some centres not stated) | 1500 nM | 49% | – | – | – | –
32 | CC[C@H]1[C@@H](O)[C@@H]2[C@H](CC[C@]3(C)[C@@H]([C@H](C)CCNC(=O)O[C@@H]4CCOC4)CC[C@@H]23)[C@@]2(C)CC[C@@H](O)C[C@@H]12 | 120 nM | 100% | 80 nM | 170% | – | –
33 | CC[C@H]1[C@@H](O)[C@@H]2[C@H](CC[C@]3(C)[C@@H]([C@H](C)CCNC(=O)OCc4ccccc4)CC[C@@H]23)[C@@]2(C)CC[C@@H](O)C[C@@H]12 | 300 nM | 130% | – | – | – | –

Source: ChEMBL document CHEMBL4138253, “Synthesis and Biological Evaluation of a Series of Bile Acid Derivatives as FXR Agonists for Treatment of NASH” (ACS Med Chem Lett, 2017)
